The target in assay [1] is GmolGOBP1 (Grapholita molesta, UniProt H9XTU5). The assay can be described thus: Fluorescence competitive binding assay with probe 1-NPN, rGmolGOBP1. As for the experimental part: (§1) Fluorescence binding assays were performed on a Hitachi (Tokyo, Japan) F-4500 fluorescence spectrophotometer with a 1 cm light path fluorimeter quartz cuvette. Both of the slit widths for excitation and emission were 10 nm. 1-N-phenyl-naphthylamine (1-NPN) was dissolved in HPLC purity grade methanol to yield a 1 mM stock solution. […] The probes were excited at 337 nm and emission spectra were recorded between 370 and 550 nm. […] Binding data were collected in three independent measurements.
(§2) Dissociation constants of the complex GmolGOBPs/1-NPN (K1-NPN) were calculated by a nonlinear regression binding curve, using Prism 5.0 (GraphPad Software Inc.).

Assay [2] has as its target T1, rGmolGOBP1 (Grapholita molesta, UniProt H9XTU5).
T1 sequence (H9XTU5 21-164): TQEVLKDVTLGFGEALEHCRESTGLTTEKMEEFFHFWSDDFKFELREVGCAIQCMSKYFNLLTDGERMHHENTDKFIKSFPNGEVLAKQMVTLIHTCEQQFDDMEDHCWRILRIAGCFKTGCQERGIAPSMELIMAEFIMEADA
The experiment in a line: 1-NPN fluorescence binding titration of rGmolGOBP1. As to conditions: 2 μM protein, 20 mM Tris-HCl pH 7.4; read-out: dissociation constant of 1-NPN. As for the experimental part: (§3) Fluorescence binding assays were performed on a Hitachi (Tokyo, Japan) F-4500 fluorescence spectrophotometer with a 1 cm light path fluorimeter quartz cuvette. Both of the slit widths for excitation and emission were 10 nm. 1-N-phenyl-naphthylamine (1-NPN) was dissolved in HPLC purity grade methanol to yield a 1 mM stock solution. A 2 μM solution of the protein in 20 mM Tris-HCl, pH 7.4, was titrated with aliquots of 1 mM 1-NPN to final concentrations of 1, 2, 4, 6, 8, 10, 12, 14, 16, 18, and 22 μM. The probes were excited at 337 nm and emission spectra were recorded between 370 and 550 nm. All ligands (S1 File) used in competitive binding assays were also dissolved in HPLC purity grade methanol. The final concentrations of sex pheromones were between 1 and 22 μM for each rGmolGOBP protein, whereas the concentrations of 30 synthetic plant volatiles to rGmolGOBP1 and 2 were up to 64 and 100 μM, respectively. Binding data were collected in three independent measurements.
(§4) Dissociation constants of the complex GmolGOBPs/1-NPN (K1-NPN) were calculated by a nonlinear regression binding curve, using Prism 5.0 (GraphPad Software Inc.). […]

Assay [3] deals with rGmolGOBP2 (Grapholita molesta, UniProt H9XTU6). The experiment in a line: 1-NPN fluorescence binding titration of rGmolGOBP2. Particulars: 2 μM protein, 20 mM Tris-HCl pH 7.4; read-out: dissociation constant of 1-NPN. As for the experimental part:
as §3, §4

Assay [4] addresses GmolGOBP2 (Grapholita molesta, UniProt H9XTU6). The experiment in a line: Fluorescence competitive binding assay with probe 1-NPN, rGmolGOBP2 wild-type. As for the experimental part: as §1, §2
The target in assay [5] is rGmolPBP1. Details: method as in earlier work. Particulars: cited from earlier work.
Where [6] appears, read: protein and 1-NPN 2 μM, pH 7.4, calculated from IC50, read-out: GmolGOBP1 Ki.
The mark [7] stands for this setting: protein and 1-NPN 2 μM, pH 7.4, displacing half of initial fluorescence, read-out: GmolGOBP1 IC50.
Setting [8] is: protein and 1-NPN 2 μM, pH 7.4, calculated from IC50, read-out: GmolGOBP2 Ki.
[9] abbreviates: protein and 1-NPN 2 μM, pH 7.4, displacing half of initial fluorescence, read-out: GmolGOBP2 IC50.

Molecules are shown by their SMILES. Like-named read-outs stand apart in the source and are kept apart here.

GmolGOBP2, sequence (H9XTU6 entry or part of it): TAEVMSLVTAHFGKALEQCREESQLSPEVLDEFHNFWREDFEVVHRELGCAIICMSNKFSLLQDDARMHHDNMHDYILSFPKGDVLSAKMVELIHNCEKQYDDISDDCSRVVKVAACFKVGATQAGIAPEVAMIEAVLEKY
rGmolGOBP2, sequence (H9XTU6 entry or part of it): as above

Turning to `CCCCCCO` [1-Hexanol], the Ki in assay [1] (setting [6]) was 19.7 µM. In addition, in assay [1] (setting [7]), the IC50 amounted to 21.4 ± 1.8 µM.

Take `c1ccc(Nc2cccc3ccccc23)cc1` [1-NPN, 1-N-phenyl-naphthylamine]: the figures for the Kd in assay [2] and in assay [3] were 11.4 µM and 4.73 µM, respectively.

For the compound `CCCCC(CC)CO` (stereo not drawn) [2-Ethyl-1-hexanol], the Ki in assay [1] (setting [6]) is 24.8 µM. Also, the IC50 in assay [1] (setting [7]) was determined as 27 ± 1.81 µM.

On to `CC(C)CCO` [3-Methyl-1-butanol], for which, in assay [1] (setting [6]), the inhibition constant (Ki) was 10.7 µM. In addition, the IC50 in assay [1] (setting [7]) was 11.6 ± 0.81 µM.

In assay [1], `CCC/C=C/C=O` [(E)-2-Hexenal] registered an IC50 of 23 ± 1.85 µM and a Ki of 21.2 µM.

In assay [1], `O=Cc1ccccc1` [Benzaldehyde] displayed an IC50 of 35 ± 3.28 µM and a Ki of 32.2 µM. In assay [4], this compound yielded an IC50 of 91.3 ± 2.87 µM and a Ki of 75.4 µM.

As to `N#Cc1ccccc1` [Benzonitrile], in assay [1], the IC50 was 40.4 ± 1.95 µM and affinity was put at a Ki of 37.1 µM.

Turning to `CCCCOC(C)=O` [Butyl acetate], in assay [1], the IC50 stood at 39.9 ± 2.66 µM and affinity was put at a Ki of 36.7 µM.

On to `CCCCOC(=O)CCC` [Butyl butyrate], for which the Ki in assay [1] (setting [6]) was 33.1 µM. In assay [1] (setting [7]), the IC50 came out at 36 ± 2.5 µM.

With `CCCCCC(=O)OCCCC` [Butyl hexanoate], the Ki in assay [1] (setting [6]) was 17.7 µM; in assay [4] (setting [8]), 43.1 µM. The IC50 in assay [1] (setting [7]) came out at 19.2 ± 1.27 µM; in assay [4] (setting [9]), 52.2 ± 2.49 µM.

In assay [1], `CC/C=C\CCO` [Cis-3-Hexen-1-ol] yielded an IC50 of 18.3 ± 1.55 µM and a Ki of 16.8 µM.

On to `CC/C=C\CCOC(C)=O` [Cis-3-Hexenyl acetate], for which, in assay [1] (setting [6]), the Ki was 22.4 µM. Besides, the 50% inhibitory concentration (IC50) in assay [1] (setting [7]) came to 24.3 ± 1.71 µM.

Consider `CCCCCCCCCC=O` [Decanal], for which the figures for the inhibitory constant (Ki) in assay [1] (setting [6]) and in assay [4] (setting [8]) were 16 µM and 42.4 µM, respectively. Further, the IC50 was 17.4 ± 1.3 µM in assay [1] (setting [7]) and 51.3 ± 3.18 µM in assay [4] (setting [9]).

Regarding `CCCCCCCCCC` [Decane], the Ki in assay [1] (setting [6]) is 5.19 µM. Further, the IC50 in assay [1] (setting [7]) came to 5.64 ± 0.69 µM.

Turning to `CCC/C=C/CCCCCCCOC(C)=O` [E8-12:AC, (E)-8-dodecenyl acetate], the Ki is 8.85 µM in assay [1] (setting [6]) and 1.09 µM in assay [5]. Also, the IC50 in assay [1] (setting [7]) is 10.5 ± 0.87 µM.

Regarding `CCCC(=O)OCC` [Ethyl butyrate], the Ki in assay [1] (setting [6]) was 33.2 µM. Further, in assay [1] (setting [7]), the IC50 was 36.1 ± 2.88 µM.

In the case of `CCCCCCC(=O)OCC` [Ethyl heptanoate], the Ki was 34.4 µM in assay [1] (setting [6]) and 73.2 µM in assay [4] (setting [8]). Besides, the IC50 is 37.4 ± 2.35 µM in assay [1] (setting [7]) and 88.7 ± 3.01 µM in assay [4] (setting [9]).

In the case of `CCCCCC(=O)OCC` [Ethyl hexanoate], the Ki in assay [1] (setting [6]) is 35 µM. Further, in assay [1] (setting [7]), the IC50 amounted to 38.1 ± 3.36 µM.

A word on the Ki: it is a dissociation constant, usually derived from enzyme kinetics or from competition with a known ligand. A word on the IC50: it is the point on the concentration scale where inhibition reaches its midpoint.

The record behind these values is article PMC4859520, “Binding Properties of General Odorant Binding Proteins from the Oriental Fruit Moth, Grapholita molesta (Busck) (Lepidoptera: Tortricidae)” (PLoS ONE, 2016).
